Measurements from ChEMBL document CHEMBL1201862, “PubChem BioAssay data set” (2004).
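1) Cells in 96-well plates. 2) Compound, 48 h, 5 concentrations. 3) Linear interpolation between surrounding doses. 4) Unreached endpoint = highest concentration. GI50: concentration for 50% inhibition of growth.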 Activity calls are given as the source filed them. Rule as the data show it: active = GI50 up to about 1.1 µM and inactive = higher.

How the values were obtained:
Assay in all cases: NCI-60 cell line screen, 48 h
A498 = test system: A498
CAKI-1 = test system: CAKI-1
CCRF-CEM = test system: CCRF-CEM
DU-145 = test system: DU-145
HL-60 = test system: HL-60
HOP-62 = test system: HOP-62
HOP-92 = test system: HOP-92
Hs-578T = test system: Hs-578T
MDA-MB-435 = test system: MDA-MB-435
MDA-N = test system: MDA-N
MOLT-4 = test system: MOLT-4
OVCAR-3 = test system: OVCAR-3
OVCAR-8 = test system: OVCAR-8
SF-268 = test system: SF-268
SK-OV-3 = test system: SK-OV-3
SR = test system: SR
SW-620 = test system: SW-620
T47D = test system: T47D
UACC-257 = test system: UACC-257
NCI-H226 = test system: NCI-H226

Row | SMILES | GI50 (A498) | GI50 (CAKI-1) | GI50 (CCRF-CEM) | GI50 (DU-145) | GI50 (HL-60) | GI50 (HOP-62) | GI50 (HOP-92) | GI50 (Hs-578T) | GI50 (MDA-MB-435) | GI50 (MDA-N) | GI50 (MOLT-4) | GI50 (OVCAR-3) | GI50 (OVCAR-8) | GI50 (SF-268) | GI50 (SK-OV-3) | GI50 (SR) | GI50 (SW-620) | GI50 (T47D) | GI50 (UACC-257) | GI50 (NCI-H226)
1 | COC1=CC(=O)c2c(c(COP(=O)(N(C)CCBr)N(C)CCBr)cn2C)C1=O | 0.279 µM (active) | < 0.01 µM (active) | < 0.0158 µM (active) | 0.0134 µM (active) | < 0.01 µM (active) | < 0.0203 µM (active) | 0.107 µM (active) | 0.392 µM (active) | 0.0588 µM (active) | 0.109 µM (active) | < 0.01 µM (active) | 0.226 µM (active) | < 0.0264 µM (active) | 0.0431 µM (active) | 0.121 µM (active) | < 0.01 µM (active) | < 0.0109 µM (active) | 1.31 µM (inactive) | 0.258 µM (active) | –
2 | Cc1c(/N=C/C=C/c2ccccc2)c(=O)n(-c2ccccc2)n1C | 14.7 µM (inactive) | 34.7 µM (inactive) | 6.87 µM (inactive) | 33.9 µM (inactive) | 16.1 µM (inactive) | 33.3 µM (inactive) | 30.3 µM (inactive) | 23.1 µM (inactive) | 34.4 µM (inactive) | 18.5 µM (inactive) | 12.9 µM (inactive) | 24.5 µM (inactive) | 17.4 µM (inactive) | 33.6 µM (inactive) | > 100 µM (inactive) | – | 23 µM (inactive) | 23 µM (inactive) | 45.3 µM (inactive) | 13.6 µM (inactive)
3 | CSC(SC)=C(C(=O)c1ccc(Cl)cc1)n1c(=O)sc2cc(Br)ccc21 | > 100 µM (inactive) | 23.1 µM (inactive) | 69.2 µM (inactive) | > 100 µM (inactive) | > 100 µM (inactive) | > 100 µM (inactive) | 31.5 µM (inactive) | > 100 µM (inactive) | > 100 µM (inactive) | > 100 µM (inactive) | 18.7 µM (inactive) | > 100 µM (inactive) | > 100 µM (inactive) | > 100 µM (inactive) | > 100 µM (inactive) | – | > 100 µM (inactive) | > 100 µM (inactive) | > 100 µM (inactive) | > 100 µM (inactive)
4 | O=C(N/N=C\c1ccccc1)Nc1cccc2ccccc12 | 25.4 µM (inactive) | 35.7 µM (inactive) | > 100 µM (inactive) | > 100 µM (inactive) | > 100 µM (inactive) | 18.5 µM (inactive) | 40.5 µM (inactive) | 22 µM (inactive) | 29.9 µM (inactive) | 25.1 µM (inactive) | > 100 µM (inactive) | > 100 µM (inactive) | 27.9 µM (inactive) | 57 µM (inactive) | – | > 100 µM (inactive) | 33.8 µM (inactive) | 2.98 µM (inactive) | 78.2 µM (inactive) | 27.1 µM (inactive)
5 | Cc1cc(Cl)cc2c1NC(=O)C2(O)CC(=O)c1ccco1 (centres undefined) | 62.7 µM (inactive) | > 100 µM (inactive) | 38.7 µM (inactive) | > 100 µM (inactive) | – | > 100 µM (inactive) | > 100 µM (inactive) | 88.9 µM (inactive) | 2.92 µM (inactive) | 10.4 µM (inactive) | 0.92 µM (active) | 52.4 µM (inactive) | > 78.3 µM (inactive) | > 100 µM (inactive) | > 100 µM (inactive) | 0.506 µM (active) | > 78.2 µM (inactive) | > 100 µM (inactive) | 45.9 µM (inactive) | > 100 µM (inactive)
6 | S=C1SC(=N\c2ccccc2)/C(=N/c2ccccc2)N1c1ccc2ccccc2c1 | > 100 µM (inactive) | > 100 µM (inactive) | > 100 µM (inactive) | > 100 µM (inactive) | > 100 µM (inactive) | > 100 µM (inactive) | – | 64.1 µM (inactive) | > 100 µM (inactive) | > 100 µM (inactive) | – | > 100 µM (inactive) | > 100 µM (inactive) | – | > 100 µM (inactive) | > 100 µM (inactive) | – | > 100 µM (inactive) | – | > 100 µM (inactive)
7 | O=C1C=C(NCCc2cc(Br)c(O)c(Br)c2)C(=O)c2[nH]cnc21 | – | 39.9 µM (inactive) | 2.28 µM (inactive) | 36.7 µM (inactive) | > 10 µM (inactive) | 38.6 µM (inactive) | 29.7 µM (inactive) | 7.35 µM (inactive) | 15.6 µM (inactive) | 18.6 µM (inactive) | > 10 µM (inactive) | 21.6 µM (inactive) | 38.7 µM (inactive) | 49 µM (inactive) | 41.2 µM (inactive) | 32.4 µM (inactive) | 21.6 µM (inactive) | 30.3 µM (inactive) | 5.6 µM (inactive) | 23 µM (inactive)
8 | C=CCN(CCN(CC=C)S(=O)(=O)c1ccc(C)cc1)S(=O)(=O)c1ccc(C)cc1 | > 100 µM (inactive) | – | > 100 µM (inactive) | > 100 µM (inactive) | – | – | 95.9 µM (inactive) | > 100 µM (inactive) | > 100 µM (inactive) | > 100 µM (inactive) | > 100 µM (inactive) | > 100 µM (inactive) | > 100 µM (inactive) | > 100 µM (inactive) | – | > 100 µM (inactive) | > 100 µM (inactive) | > 100 µM (inactive) | > 100 µM (inactive) | > 100 µM (inactive)
9 | CCOC(=O)c1[nH]cc(C)c1-c1ccn(-c2ccccc2)c1 | > 100 µM (inactive) | > 100 µM (inactive) | 19.2 µM (inactive) | > 100 µM (inactive) | – | > 100 µM (inactive) | 21.5 µM (inactive) | 25.9 µM (inactive) | 41.9 µM (inactive) | 35.6 µM (inactive) | 18.3 µM (inactive) | 19.6 µM (inactive) | 38.3 µM (inactive) | 44.7 µM (inactive) | > 100 µM (inactive) | 15.6 µM (inactive) | 80.4 µM (inactive) | 35 µM (inactive) | 35.3 µM (inactive) | 51.5 µM (inactive)
10 | CCCCOCCOCCOC1=CC(=O)c2c(O)ccc(O)c2C1=O | – | 1.95 µM (inactive) | 2.14 µM (inactive) | 1.7 µM (inactive) | 2.27 µM (inactive) | 1.79 µM (inactive) | 2.9 µM (inactive) | 2.55 µM (inactive) | 0.188 µM (active) | 0.167 µM (active) | 2.65 µM (inactive) | 1.61 µM (inactive) | – | 4.26 µM (inactive) | > 10 µM (inactive) | 2.7 µM (inactive) | 1.57 µM (inactive) | 2.65 µM (inactive) | 1.58 µM (inactive) | 2.01 µM (inactive)
11 | O=C1CC(n2ccnc2)c2c(Cl)sc(Cl)c21 (centres undefined) | – | 19.5 µM (inactive) | 4.78 µM (inactive) | 16.1 µM (inactive) | 51.8 µM (inactive) | 18.7 µM (inactive) | – | 30.4 µM (inactive) | 17.1 µM (inactive) | 16.2 µM (inactive) | 3.86 µM (inactive) | 15.4 µM (inactive) | 13.1 µM (inactive) | 21.9 µM (inactive) | 23.1 µM (inactive) | 2.92 µM (inactive) | 11 µM (inactive) | 21.9 µM (inactive) | 15.5 µM (inactive) | 31.6 µM (inactive)
12 | CCOC(=O)Oc1cc2c(ccn2C)c2c1c1ccccc1n2C(=O)OCC | > 100 µM (inactive) | > 100 µM (inactive) | > 100 µM (inactive) | > 100 µM (inactive) | – | > 100 µM (inactive) | > 100 µM (inactive) | > 100 µM (inactive) | > 100 µM (inactive) | > 100 µM (inactive) | > 100 µM (inactive) | > 100 µM (inactive) | > 100 µM (inactive) | > 100 µM (inactive) | > 100 µM (inactive) | > 100 µM (inactive) | > 100 µM (inactive) | > 100 µM (inactive) | > 100 µM (inactive) | > 100 µM (inactive)
13 | CO[C@]12CC(=O)C3(C(C[C@H]4CC5CC=C6C[C@@H](OC(C)=O)CC[C@]6(OC(C)=O)C5C[C@@]43C)C1)C1C[C@H]3[C@@H]4CC=C5C[C@@H](OC(C)=O)CC[C@]5(OC(C)=O)[C@H]4CC[C@]3(C)C12 (some centres undefined) | 27.2 µM (inactive) | 19.2 µM (inactive) | 74 µM (inactive) | 16.5 µM (inactive) | 14.9 µM (inactive) | 18.8 µM (inactive) | 18.7 µM (inactive) | 32.2 µM (inactive) | 18.8 µM (inactive) | 13.1 µM (inactive) | 5.58 µM (inactive) | 19.7 µM (inactive) | 24.1 µM (inactive) | 56.9 µM (inactive) | 62.1 µM (inactive) | 5.66 µM (inactive) | 41 µM (inactive) | 10.9 µM (inactive) | 23.6 µM (inactive) | –
14 | C[N+](C)(CCCCCC[N+](C)(C)CCCN1C(=O)c2cccc3cccc(c23)C1=O)CCCN1C(=O)c2cccc3cccc(c23)C1=O | > 100 µM (inactive) | 78 µM (inactive) | > 100 µM (inactive) | > 100 µM (inactive) | > 100 µM (inactive) | – | > 100 µM (inactive) | > 100 µM (inactive) | > 100 µM (inactive) | > 100 µM (inactive) | > 100 µM (inactive) | 84.9 µM (inactive) | > 100 µM (inactive) | > 100 µM (inactive) | > 100 µM (inactive) | > 100 µM (inactive) | > 100 µM (inactive) | > 100 µM (inactive) | > 100 µM (inactive) | –
15 | O=C(CCN1CCCCC1)Nc1ccc2sc3ccccc3c(=O)c2n1 | – | 11.5 µM (inactive) | 7.91 µM (inactive) | 18.4 µM (inactive) | 3.89 µM (inactive) | 13.1 µM (inactive) | 0.411 µM (active) | 19.9 µM (inactive) | 13.1 µM (inactive) | 14.3 µM (inactive) | 2.56 µM (inactive) | 15.8 µM (inactive) | > 10 µM (inactive) | 16.3 µM (inactive) | 23.2 µM (inactive) | 12.2 µM (inactive) | 8.3 µM (inactive) | 28.4 µM (inactive) | 19.7 µM (inactive) | –
